Experimental findings from patent publication US20110275703A1, “SUBSTITUTED SPIROKETAL DERIVATIVES AND USE THEREOF AS THERAPEUTIC DRUG FOR DIABETES” (CHUGAI SEIYAKU KABUSHIKI KAISHA, priority 2007, published 2011) are described below.

One test deals with T1, human SGLT2 (Homo sapiens, UniProt P31639).
T1 construct: expressed in transfected cells; host or cells: CHO-K1
T1 sequence (P31639 1-672): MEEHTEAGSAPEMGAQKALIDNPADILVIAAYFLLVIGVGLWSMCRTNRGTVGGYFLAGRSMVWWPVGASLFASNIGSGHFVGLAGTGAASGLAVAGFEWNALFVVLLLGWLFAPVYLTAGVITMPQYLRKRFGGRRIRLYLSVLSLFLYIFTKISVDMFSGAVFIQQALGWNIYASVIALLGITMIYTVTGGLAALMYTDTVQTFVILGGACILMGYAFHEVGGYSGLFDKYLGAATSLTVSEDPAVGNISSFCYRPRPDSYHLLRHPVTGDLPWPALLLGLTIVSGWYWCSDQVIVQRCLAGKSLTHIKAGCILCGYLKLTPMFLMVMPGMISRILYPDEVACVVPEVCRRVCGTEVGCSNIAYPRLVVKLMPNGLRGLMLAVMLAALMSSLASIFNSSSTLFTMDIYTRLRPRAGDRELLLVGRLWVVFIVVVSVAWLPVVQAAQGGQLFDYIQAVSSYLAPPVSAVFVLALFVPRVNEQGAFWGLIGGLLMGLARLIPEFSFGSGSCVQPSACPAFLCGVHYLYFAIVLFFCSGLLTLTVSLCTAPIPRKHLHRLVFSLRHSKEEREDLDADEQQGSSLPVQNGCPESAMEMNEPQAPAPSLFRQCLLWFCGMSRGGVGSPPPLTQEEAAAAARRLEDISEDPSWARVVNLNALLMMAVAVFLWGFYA
Kind of test: Inhibitory activity against methyl-α-D-glucopyranoside uptake, CHO cells stably expressing human SGLT2. It counts as cell-based. The settings on record: inhibition of SGLT2, Table 2-1; read-out: IC50 value. An excerpt:
Evaluation of inhibitory activity against methyl-α-D-glucopyranoside uptake of human Na^+-glucose cotransporter (SGLT1 and SGLT2)
2) Construction of Human SGLT2 Expression Vector
Human SGLT2 cDNA was amplified by PCR with a cDNA library derived from human kidney (Clontech) as a template, synthetic DNA primers and KOD+ DNA Polymerase. The amplified cDNA was inserted into pcRII-Topo vector by using a Topo TA Cloning Dual Promoter kit. E. coli competent cells (TPO10) were transformed with the plasmid vector, cultured in LB medium containing ampicillin (50 mg/L) to grow ampicillin-resistant clones. The plasmid vector containing human SGLT2 cDNA was purified from the clone in a standard manner. Human SGLT2 cDNA added restriction enzyme recognition sites (Xho I at 5′-end, Hind III at 3′-end) was amplified by PCR with the plasmid vector as a template, synthetic DNA primers containing an additional restriction enzyme recognition site and KOD+ DNA Polymerase. This amplified cDNA was digested with Xho I and Hind III, and ligated into expression vector pcDNA3.1(−) digested with Xho I and Hind III by using a Rapid DNA Ligation kit. E. coli competent cells (DH5α) were transformed with the ligated expression vector and grown in ampicillin-containing LB medium. Human SGLT2 expression vector was purified from the ampicillin-resistant clone in a standard manner.
3) Establishment of Cell Lines Stably Expressing Human SGLT1 or Human SGLT2
The human SGLT1 expression vector or the human SGLT2 expression vector was digested with the restriction enzyme Pvu I and transfected into CHO-Kl cells with FuGENE (Roche Diagonostics). After the transfection, the cells were cultured at 37° C. in the presence of 5% CO2 for about 3 weeks in DMEM medium (Gibco) containing penicillin (50 U/mL, SIGMA), streptomycin (50 mg/L, SIGMA), geneticin (200 mg/L, Nacalai Tesque, Inc., Japan) and 20% fetal bovine serum to obtain geneticin-resistant clones. Among these clones, clones stably expressing human SGLT1 or human SGLT2 were selected by the evaluating the sodium-dependent uptake activity of sugar (methyl-α-D-glucopyranoside).
4) Evaluation of Inhibitory Activity Against methyl-α-D-glucopyranoside uptake
Cell lines stably expressing human SGLT1 or human SGLT2 CHO were seeded in 96-well culture plates at a density of 30000 to 40000 cells/well and cultured for 4 to 6 days. The medium in these plates was removed and replaced by 150 μL/well pretreatment buffer (i.e., a buffer containing 140 mM choline chloride, 2 mM potassium chloride, 1 mM calcium chloride, 1 mM magnesium chloride, 10 mM 2-[4-(2-hydroxyethyl)-1-piperazinyl]ethanesulfonic acid and tris(hydroxymethyl)aminomethane, pH 7.4), and the plates were incubated at 37° C. for 20 minutes. The pretreatment buffer in the plates was removed, replaced by 50 μL/well fresh pretreatment buffer, and the plates were incubated at 37° C. for 20 minutes. Methyl-α-D-(U—^14C)glucopyranoside (6.3 mL, Amersham Pharmacia Biotech, 200 mCi/L) was added to and mixed with 100 mL buffer (i.e., a buffer containing 140 mM sodium chloride, 2 mM potassium chloride, 1 mM calcium chloride, 1 mM magnesium chloride, 1 mM methyl-α-D-glucopyranoside, 10 mM [4-(2-hydroxyethyl)-1-piperazinyl]ethanesulfonic acid and tris(hydroxymethyl)aminomethane, pH 7.4), which was used as uptake buffer. Test compounds were dissolved into uptake buffer and these test compound solutions were used for evaluating inhibitory activity. Uptake buffer without a test compound was used as a control solution. Moreover, for use in measuring baseline uptake in the absence of sodium, sodium-free solution was prepared in the same manner to contain 140 mM choline chloride instead of sodium chloride. The pretreatment buffer was removed from each well of the plates and replaced by 35 μL/well test compound solutions, control solution or sodium-free solution, and the plates were incubated at 37° C. for 45 minutes. […]

A further test concerns db/db mice. Kind of test: Study for glucose lowering effect in db/db mouse. In kind it is in vivo. The settings on record: for inhibition in vivo at 0.3 mg/kg: Mus musculus; for inhibition in vivo at 0.3 mg/kg / Percent reduction of blood glucose (%) 6 hours after administration: 6 hours. The method, then: Study for Glucose Lowering Effect in dB/dB Mouse
A study for glucose lowering effect was conducted using db/db mice (purchased from Clea Japan, Inc., male, 9 to 11 weeks old), type 2 diabetic model mice. On the day of the study, body weights and blood glucose levels were measured prior to the start of testing. Measurement of the blood glucose levels was performed using a simple blood glucose meter (manufactured by Bayer HealthCare, Dexter-Z II). The mice were allocated to some groups consisting of 5 mice each so that homogeneity of body weights or blood glucose levels among groups would be ensured. Blood collection was carried out by making an incision on the tip of the tail and taking the blood therefrom. On the day of the study, the test compounds were suspended in 0.5% carboxymethylcellulose solution (CMC solution), and the dosing solutions of which concentration was adjusted to either 0.3 mg/10 mL or 3 mg/10 mL were prepared. The dosing solutions were orally administered by gavage for mice in 10 mL/kg. To the control group, only a 0.5% CMC solution was orally administered in 10 mL/kg. Blood was collected prior to or sequentially after administration of test compounds by above method. The blood glucose levels were determined using a hexokinase method (AutoSera S GLU, manufactured by Daiichi Pure Chemicals Co., Ltd.). A percent reduction of blood glucose relative to control group at each time point after administration of test compounds was calculated by the following equation.
Percent reduction of blood glucose (%)={blood glucose level in the control group (mg/dL)-blood glucose level in the test compound group (mg/dL)}/blood glucose level in the control group (mg/dL)×100

Where [1] appears, read: po, 0.3 mg/kg administration, read-out: reduction of blood glucose 6 hours after administration.
Setting [2] is: oral, 0.3 mg/kg, relative to control group, Table 3-2.
The mark [3] stands for this setting: oral, 3.0 mg/kg, relative to control group, Table 3-2.

Read-outs that look alike come from different tables or passages of the source. Where only a bound is given, the exact number is not on record here.

Broadly, the IC50 is the midpoint of a concentration-inhibition curve. For `COc1ccc(Cc2cc3c(cc2C)CO[C@]32O[C@H](CO)[C@@H](O)[C@H](O)[C@H]2O)cc1` [Example 23, (1S,3′R,4′S,5′S,6′R)-3′,4′,5′,6′-tetrahydro-6′-(hydroxymethyl)-6-[(4-methoxyphenyl)methyl]-5-methyl-spiro[isobenzofuran-1(3H),2′-[2H]pyran]-3′,4′,5′-triol], the half-maximal inhibitory concentration (IC50) on human SGLT2 is 1.5 nM. Besides, the inhibition in vivo at 0.3 mg/kg in the test on db/db mice (setting [1]) is no less than 25%. Regarding `CC(C)c1ccc(Cc2cc3c(cc2F)CO[C@]32O[C@H](CO)[C@@H](O)[C@H](O)[C@H]2O)cc1` [Example 19, (1S,3′R,4′S,5′S,6′R)-5-fluoro-3′,4′,5′,6′-tetrahydro-6′-(hydroxymethyl)-6-[(4-isopropylphenyl)methyl]-spiro[isobenzofuran-1(3H),2′-[2H]pyran]-3′,4′,5′-triol], on human SGLT2, the half-maximal inhibitory concentration (IC50) amounted to 2 nM. Moreover, in the test on db/db mice (setting [1]), the inhibition in vivo at 0.3 mg/kg was no less than 25%.

For `CC(C)c1ccc(Cc2ccc3c(c2)C2(OC3)OC(CO)C(O)C(O)C2O)cc1` (stereo not drawn) [Comparative Compound 2, 1,1-anhydro-1-C-[5-(4-isopropylphenyl)methyl-2-(hydroxymethyl)phenyl]-β-glucopyranose, reference compound], the “Percent reduction of blood glucose (%) 6 hours after administration” value in the test with db/db mice (oral, 0.3 mg/kg, relative to control group, Table 3-1) was determined as 16%; in the test on db/db mice (setting [2]), 16%; with db/db mice (setting [3]), 53%. Also, the “Percent reduction of blood glucose (%) 24 hours after administration” value with db/db mice (setting [2]) was found to be 4.9%; in the test on db/db mice (setting [3]) it was 13%. With `COc1ccc(Cc2cc3c(cc2Cl)CO[C@]32O[C@H](CO)[C@@H](O)[C@H](O)[C@H]2O)cc1` [Example 4, (1S,3′R,4′S,5′S,6′R)-5-chloro-3′,4′,5′,6′-tetrahydro-6′-(hydroxymethyl)-6-[(4-methoxyphenyl)methyl]-spiro[isobenzofuran-1(3H),2′-[2H]pyran]-3′,4′,5′-triol], the half-maximal inhibitory concentration (IC50) at human SGLT2 is 1 nM. Same read-out and setting: the result for `CCc1ccc(Cc2cc3c(cc2Cl)CO[C@]32O[C@H](CO)[C@@H](O)[C@H](O)[C@H]2O)s1` [Example 29, (1S,3′R,4′S,5′S,6′R)-5-chloro-6-[(5-ethylthiophen-2-yl)methyl]-3′,4′,5′,6′-tetrahydro-6′-(hydroxymethyl)-spiro[isobenzofuran-1(3H),2′-[2H]pyran]-3′,4′,5′-triol] reads 1.5 nM. Take `OC[C@H]1O[C@]2(OCc3cc(Cl)c(Cc4ccc(OC(F)(F)F)cc4)cc32)[C@H](O)[C@@H](O)[C@@H]1O` [Example 11, (1S,3′R,4′S,5′S,6′R)-5-chloro-6-[(4-trifluoromethoxyphenyl)methyl]-3′,4′,5′,6′-tetrahydro-6′-(hydroxymethyl)-spiro[isobenzofuran-1(3H),2′-[2H]pyran]-3′,4′,5′-triol]: the half-inhibitory concentration (IC50) on human SGLT2 was 1.9 nM. For the same compound, in the test on db/db mice (oral, 0.3 mg/kg, relative to control group, Table 3-1, read-out: Percent reduction of blood glucose (%) 6 hours after administration), the inhibition in vivo at 0.3 mg/kg worked out at 45%. As to `Cc1cc2c(cc1Cc1ccc(C(F)(F)F)cc1)[C@]1(OC2)O[C@H](CO)[C@@H](O)[C@H](O)[C@H]1O` [Example 26, (1S,3′R,4′S,5′S,6′R)-6-[(4-trifluoromethylphenyl)methyl]-3′,4′,5′,6′-tetrahydro-6′-(hydroxymethyl)-5-methyl-spiro[isobenzofuran-1(3H),2′-[2H]pyran]-3′,4′,5′-triol], at human SGLT2, the IC50 was determined as 2.8 nM. Further, the inhibition in vivo at 0.3 mg/kg in the test with db/db mice (setting [1]) is no less than 25%. For `OC[C@H]1O[C@]2(OCc3cc(Cl)c(Cc4ccc(Cl)cc4)cc32)[C@H](O)[C@@H](O)[C@@H]1O` [Example 6, (1S,3′R,4′S,5′S,6′R)-5-chloro-6-[(4-chlorophenyl)methyl]-3′,4′,5′,6′-tetrahydro-6′-(hydroxymethyl)-spiro[isobenzofuran-1(3H),2′-[2H]pyran]-3′,4′,5′-triol], the IC50 on human SGLT2 amounted to 1.3 nM. The inhibition in vivo at 0.3 mg/kg in the test with db/db mice (setting [1]) was no less than 25%. In the case of `OC[C@H]1O[C@]2(OCc3cc(Cl)c(Cc4cc5ccccc5s4)cc32)[C@H](O)[C@@H](O)[C@@H]1O` [Example 28, (1S,3′R,4′S,5′S,6′R)-6-[(benzothiophen-2-yl)methyl]-5-chloro-3′,4′,5′,6′-tetrahydro-6′-(hydroxymethyl)-spiro[isobenzofuran-1(3H),2′-[2H]pyran]-3′,4′,5′-triol], the half-maximal inhibitory concentration (IC50) on human SGLT2 was 1.4 nM. For the compound `Cc1ccc(Cc2cc3c(cc2Cl)CO[C@]32O[C@H](CO)[C@@H](O)[C@H](O)[C@H]2O)cc1` [Example 2, (1S,3′R,4′S,5′S,6′R)-5-chloro-3′,4′,5′,6′-tetrahydro-6′-(hydroxymethyl)-6-[(4-methylphenyl)methyl]-spiro[isobenzofuran-1(3H),2′-[2H]pyran]-3′,4′,5′-triol], the half-inhibitory concentration (IC50) at human SGLT2 was found to be 1.2 nM.

`CSc1ccc(Cc2cc3c(cc2Cl)CO[C@]32O[C@H](CO)[C@@H](O)[C@H](O)[C@H]2O)cc1` [Example 3, (1S,3′R,4′S,5′S,6′R)-5-chloro-3′,4′,5′,6′-tetrahydro-6′-(hydroxymethyl)-6-[(4-(methylthio)phenyl)methyl]-spiro[isobenzofuran-1(3H),2′-[2H]pyran]-3′,4′,5′-triol]: the IC50 at human SGLT2 came out at 1.3 nM.
